Key:
CDK12 = CDK12 (Homo sapiens, UniProt Q9NYV4); experiment: Western blot degradation of CDK12 (Example 3); format: cell-based; set-up: degradation of CDK12/13 protein in leukemia cells KASUMI-1, MV4-11, and Jurkat; endogenous in cells; conditions: DC50 classes; cell line not given; read-out: CDK12 degradation Activity
CDK13 = CDK13 (Homo sapiens, UniProt Q14004); experiment: Western blot degradation of CDK13 (Example 3); format: cell-based; set-up: degradation of CDK12/13 protein in leukemia cells KASUMI-1, MV4-11, and Jurkat; endogenous in cells; conditions: DC50 classes; cell line not given; read-out: CDK13 degradation Activity
Chain of CDK13 (Q14004 whole entry): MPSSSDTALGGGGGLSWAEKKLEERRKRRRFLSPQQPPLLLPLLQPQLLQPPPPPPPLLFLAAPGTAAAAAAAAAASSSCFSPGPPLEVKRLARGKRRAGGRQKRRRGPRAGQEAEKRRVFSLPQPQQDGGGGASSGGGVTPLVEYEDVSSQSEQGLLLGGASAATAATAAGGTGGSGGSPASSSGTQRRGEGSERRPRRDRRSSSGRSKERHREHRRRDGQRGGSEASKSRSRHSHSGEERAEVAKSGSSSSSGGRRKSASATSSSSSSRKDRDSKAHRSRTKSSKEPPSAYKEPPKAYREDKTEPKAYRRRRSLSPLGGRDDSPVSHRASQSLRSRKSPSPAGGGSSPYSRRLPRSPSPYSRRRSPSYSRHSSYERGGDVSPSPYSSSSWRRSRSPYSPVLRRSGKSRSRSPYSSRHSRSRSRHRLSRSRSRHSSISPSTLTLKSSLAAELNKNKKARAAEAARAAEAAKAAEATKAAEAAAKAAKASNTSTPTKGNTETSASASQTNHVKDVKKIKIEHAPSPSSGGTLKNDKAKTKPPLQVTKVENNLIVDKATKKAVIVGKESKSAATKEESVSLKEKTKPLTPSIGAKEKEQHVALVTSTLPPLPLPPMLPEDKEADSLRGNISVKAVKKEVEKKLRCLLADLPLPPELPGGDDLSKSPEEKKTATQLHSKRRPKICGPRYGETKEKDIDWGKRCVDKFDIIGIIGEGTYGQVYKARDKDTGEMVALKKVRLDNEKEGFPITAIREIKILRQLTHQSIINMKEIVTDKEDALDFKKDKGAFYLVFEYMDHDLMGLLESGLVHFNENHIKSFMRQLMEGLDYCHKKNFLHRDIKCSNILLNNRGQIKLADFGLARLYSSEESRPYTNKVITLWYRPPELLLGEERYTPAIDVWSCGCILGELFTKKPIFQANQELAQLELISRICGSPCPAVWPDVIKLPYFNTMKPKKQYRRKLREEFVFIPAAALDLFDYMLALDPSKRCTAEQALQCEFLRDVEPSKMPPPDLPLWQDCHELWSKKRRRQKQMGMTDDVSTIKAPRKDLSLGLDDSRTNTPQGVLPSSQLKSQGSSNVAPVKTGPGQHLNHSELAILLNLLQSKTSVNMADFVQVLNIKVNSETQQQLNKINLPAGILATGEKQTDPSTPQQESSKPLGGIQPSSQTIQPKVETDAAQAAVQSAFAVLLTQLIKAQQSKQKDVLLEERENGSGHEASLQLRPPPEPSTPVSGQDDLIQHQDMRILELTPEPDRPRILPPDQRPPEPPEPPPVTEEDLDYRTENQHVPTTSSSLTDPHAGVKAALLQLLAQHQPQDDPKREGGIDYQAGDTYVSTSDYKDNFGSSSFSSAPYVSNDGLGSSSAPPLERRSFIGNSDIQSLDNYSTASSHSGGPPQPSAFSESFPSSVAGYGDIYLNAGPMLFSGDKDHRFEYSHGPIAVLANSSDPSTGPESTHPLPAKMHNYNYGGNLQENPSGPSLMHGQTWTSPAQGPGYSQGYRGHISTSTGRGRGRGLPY
Chain of CDK13 (O75909 whole entry partner): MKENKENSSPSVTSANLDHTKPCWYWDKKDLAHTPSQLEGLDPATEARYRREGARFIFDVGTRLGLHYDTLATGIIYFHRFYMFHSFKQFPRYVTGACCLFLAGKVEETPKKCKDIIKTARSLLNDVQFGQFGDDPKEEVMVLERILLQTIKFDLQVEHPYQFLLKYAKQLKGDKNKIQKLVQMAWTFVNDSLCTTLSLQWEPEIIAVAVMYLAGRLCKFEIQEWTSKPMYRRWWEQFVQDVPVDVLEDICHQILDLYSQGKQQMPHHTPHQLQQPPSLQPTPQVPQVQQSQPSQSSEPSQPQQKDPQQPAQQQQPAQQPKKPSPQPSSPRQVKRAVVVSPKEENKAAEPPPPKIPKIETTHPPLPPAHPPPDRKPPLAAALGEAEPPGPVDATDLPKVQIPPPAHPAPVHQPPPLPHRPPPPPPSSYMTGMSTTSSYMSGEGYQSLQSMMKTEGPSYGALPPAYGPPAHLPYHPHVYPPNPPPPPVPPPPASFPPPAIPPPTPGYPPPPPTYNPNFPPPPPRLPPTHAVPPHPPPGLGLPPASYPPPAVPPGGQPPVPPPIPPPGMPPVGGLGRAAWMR

Chain of CDK12 (Q9NYV4 whole entry): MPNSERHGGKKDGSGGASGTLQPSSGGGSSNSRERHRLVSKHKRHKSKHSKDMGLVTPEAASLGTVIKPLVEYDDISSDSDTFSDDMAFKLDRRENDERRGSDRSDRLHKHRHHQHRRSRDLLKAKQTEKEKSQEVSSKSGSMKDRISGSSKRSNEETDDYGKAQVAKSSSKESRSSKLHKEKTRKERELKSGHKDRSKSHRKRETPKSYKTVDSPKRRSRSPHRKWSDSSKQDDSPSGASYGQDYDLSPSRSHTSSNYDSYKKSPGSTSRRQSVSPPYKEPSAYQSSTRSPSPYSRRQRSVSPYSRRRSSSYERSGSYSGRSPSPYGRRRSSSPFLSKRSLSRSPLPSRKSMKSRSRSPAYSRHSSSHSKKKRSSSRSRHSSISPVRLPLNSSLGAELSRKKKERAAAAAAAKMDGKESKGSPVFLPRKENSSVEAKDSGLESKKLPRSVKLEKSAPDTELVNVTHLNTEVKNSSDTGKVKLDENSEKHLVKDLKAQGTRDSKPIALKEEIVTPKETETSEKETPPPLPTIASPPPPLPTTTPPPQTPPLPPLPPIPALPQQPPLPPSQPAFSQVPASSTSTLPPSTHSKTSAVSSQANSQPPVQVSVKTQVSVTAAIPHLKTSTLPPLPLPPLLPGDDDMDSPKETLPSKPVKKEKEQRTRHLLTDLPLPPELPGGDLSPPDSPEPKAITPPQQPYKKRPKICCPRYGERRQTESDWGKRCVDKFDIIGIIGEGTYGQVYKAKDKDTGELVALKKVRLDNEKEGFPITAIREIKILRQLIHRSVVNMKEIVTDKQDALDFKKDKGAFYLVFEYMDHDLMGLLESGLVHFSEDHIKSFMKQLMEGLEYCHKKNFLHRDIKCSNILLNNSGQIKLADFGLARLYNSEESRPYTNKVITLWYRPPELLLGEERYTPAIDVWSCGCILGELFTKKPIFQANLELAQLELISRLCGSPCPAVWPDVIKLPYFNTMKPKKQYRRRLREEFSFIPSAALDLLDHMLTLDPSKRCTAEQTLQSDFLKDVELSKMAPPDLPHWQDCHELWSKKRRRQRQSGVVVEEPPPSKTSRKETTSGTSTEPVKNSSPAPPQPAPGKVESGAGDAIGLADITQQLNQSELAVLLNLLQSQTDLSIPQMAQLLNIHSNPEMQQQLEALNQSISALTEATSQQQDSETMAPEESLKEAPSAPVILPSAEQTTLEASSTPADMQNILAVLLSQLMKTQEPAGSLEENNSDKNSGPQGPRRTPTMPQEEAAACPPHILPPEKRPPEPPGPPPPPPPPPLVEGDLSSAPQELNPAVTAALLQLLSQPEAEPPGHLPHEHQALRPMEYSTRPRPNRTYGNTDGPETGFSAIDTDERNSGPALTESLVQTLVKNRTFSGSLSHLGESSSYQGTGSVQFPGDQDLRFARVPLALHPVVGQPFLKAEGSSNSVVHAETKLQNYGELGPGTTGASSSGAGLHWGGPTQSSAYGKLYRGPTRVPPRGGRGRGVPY
Chain of CDK12 (O75909 whole entry partner): as the sequence (O75909 whole entry partner) above

Row | SMILES | DC50 (CDK12) | DC50 (CDK13)
1 | CC(=O)N(c1ccc(N2CCC3(CC2)CCN(c2ccc4c(c2)C(=O)N(C2CCC(=O)NC2=O)C4=O)CC3)cc1)[C@H]1CC[C@H](Nc2ncc3ccccc3n2)CC1 (stereo partly drawn) [Formula 120, N-(4-(9-(2-(2,6-dioxopiperidin-3-yl)-1,3-dioxoisoindolin-5-yl)-3,9-diazaspiro[5.5]undecan-3-yl)phenyl)-N-((1R,4R)-4-(quinazolin-2-ylamino)cyclohexyl)acetamide] | 3 to 10 µM | 3 to 10 µM
2 | CC(=O)N(c1ccc(N2CCN(C3CCN(c4ccc5c(c4)C(=O)N(C4CCC(=O)NC4=O)C5=O)CC3)CC2)cc1)[C@H]1CC[C@H](Nc2ncc3ccccc3n2)CC1 (stereo partly drawn) [Formula 123, N-(4-(4-(1-(2-(2,6-dioxopiperidin-3-yl)-1,3-dioxoisoindolin-5-yl)piperidin-4-yl)piperazin-1-yl)phenyl)-N-((1R,4R)-4-(quinazolin-2-ylamino)cyclohexyl)acetamide] | 0.1 to 0.5 µM | 0.5 to 1 µM
3 | CC(=O)N(c1ccc(N2CCN(C3CN(c4ccc5c(c4)C(=O)N(C4CCC(=O)NC4=O)C5=O)C3)CC2)cc1)[C@H]1CC[C@H](Nc2ncc3ccccc3n2)CC1 (stereo partly drawn) [Formula 124, N-(4-(4-(1-(2-(2,6-dioxopiperidin-3-yl)-1,3-dioxoisoindolin-5-yl)azetidin-3-yl)piperazin-1-yl)phenyl)-N-((1R,4R)-4-(quinazolin-2-ylamino)cyclohexyl)acetamide] | 1 to 3 µM | 1 to 3 µM
4 | CC(=O)N(c1ccc(N2CCN(C3CCN(c4ccc5c(c4)C(=O)N(C4CCC(=O)NC4=O)C5=O)C3)CC2)cc1)[C@H]1CC[C@H](Nc2ncc3ccccc3n2)CC1 (stereo partly drawn) [Formula 125, N-(4-(4-(1-(2-(2,6-dioxopiperidin-3-yl)-1,3-dioxoisoindolin-5-yl)pyrrolidin-3-yl)piperazin-1-yl)phenyl)-N-((1R,4R)-4-(quinazolin-2-ylamino)cyclohexyl)acetamide] | 1 to 3 µM | 3 to 10 µM
5 | CC(=O)N(c1ccc(N2CCN(CC3CCN(c4ccc5c(c4)C(=O)N(C4CCC(=O)NC4=O)C5=O)C3)CC2)cc1)[C@H]1CC[C@H](Nc2ncc3ccccc3n2)CC1 (stereo partly drawn) [Formula 126, N-(4-(4-((1-(2-(2,6-dioxopiperidin-3-yl)-1,3-dioxoisoindolin-5-yl)pyrrolidin-3-yl)methyl)piperazin-1-yl)phenyl)-N-((1R,4R)-4-(quinazolin-2-ylamino)cyclohexyl)acetamide] | 1 to 3 µM | 3 to 10 µM
6 | CC(=O)N(c1ccc(N2CCN(CC3CN(c4ccc5c(c4)C(=O)N(C4CCC(=O)NC4=O)C5=O)C3)CC2)cc1)[C@H]1CC[C@H](Nc2ncc3ccccc3n2)CC1 (stereo partly drawn) [Formula 127, N-(4-(4-((1-(2-(2,6-dioxopiperidin-3-yl)-1,3-dioxoisoindolin-5-yl)azetidin-3-yl)methyl)piperazin-1-yl)phenyl)-N-((1R,4R)-4-(quinazolin-2-ylamino)cyclohexyl)acetamide] | 0.5 to 1 µM | 0.5 to 1 µM
7 | CC(=O)N(c1ccc(-c2cncc(C(=O)N[C@H]3CCC(=O)NC3=O)c2)cc1)[C@H]1CC[C@H](Nc2ncc3ccccc3n2)CC1 [Formula 128, N—((S)-2,6-dioxopiperidin-3-yl)-5-(4-(N-((1R,4S)-4-(quinazolin-2-ylamino)cyclohexyl)acetamido)phenyl)nicotinamide] | 3 to 10 µM | 3 to 10 µM
8 | CC(=O)N(c1ccc(-c2ccc(C(=O)N[C@H]3CCC(=O)NC3=O)nc2)cc1)[C@H]1CC[C@H](Nc2ncc3ccccc3n2)CC1 [Formula 129, N—((S)-2,6-dioxopiperidin-3-yl)-5-(4-(N-((1R,4S)-4-(quinazolin-2-ylamino)cyclohexyl)acetamido)phenyl)pyridinecarboxamide] | 3 to 10 µM | 3 to 10 µM
9 | CC(=O)N(c1ccc(-c2cnc(N3CCN(c4cc(NC5CCC(=O)NC5=O)ccc4F)CC3)nc2)cc1)[C@H]1CC[C@H](Nc2ncc3ccccc3n2)CC1 (stereo partly drawn) [Formula 130, N-(4-(2-(4-(5-((2,6-dioxopiperidin-3-yl)amino)-2-fluorophenyl)piperazin-1-yl)pyrimidin-5-yl)phenyl)-N-((1R,4R)-4-(quinazolin-2-ylamino)cyclohexyl)acetamide] | 1 to 3 µM | 1 to 3 µM
10 | CC(=O)N(c1ccc(-c2ccc(OCCOCC(=O)N[C@H](C(=O)N3C[C@H](O)C[C@H]3C(=O)N[C@@H](C)c3ccc(-c4scnc4C)cc3)C(C)(C)C)nc2)cc1)[C@H]1CC[C@H](Nc2ncc3ccccc3n2)CC1 [Formula 131, (2S,4R)-1-((S)-3,3-dimethyl-2-(2-(2-((5-(4-(N-((1R,4R)-4-(quinazolin-2-ylamino)cyclohexyl)acetamido)phenyl)pyridin-2-yl)oxy)ethoxy)acetamido)butanoyl)-4-hydroxy-N—((S)-1-(4-(4-methylthiazol-5-yl)phenyl)ethyl)pyrrolidine-2-carboxamide] | 0.5 to 1 µM | 0.5 to 1 µM
11 | CC(=O)N(c1ccc(-c2cnc(OCCOCC(=O)N[C@H](C(=O)N3C[C@H](O)C[C@H]3C(=O)N[C@@H](C)c3ccc(-c4scnc4C)cc3)C(C)(C)C)nc2)cc1)[C@H]1CC[C@H](Nc2ncc3ccccc3n2)CC1 [Formula 132, (2S,4R)-1-((S)-3,3-dimethyl-2-(2-(2-((5-(4-(N-((1R,4R)-4-(quinazolin-2-ylamino)cyclohexyl)acetamido)phenyl)pyrimidin-2-yl)oxy)ethoxy)acetamido)butanoyl)-4-hydroxy-N—((S)-1-(4-(4-methylthiazol-5-yl)phenyl)ethyl)pyrrolidine-2-carboxamide] | 0.5 to 1 µM | 0.5 to 1 µM
12 | CC(=O)N(c1ccc(-c2ccc(OCC3CCN(CC(=O)N[C@H](C(=O)N4C[C@H](O)C[C@H]4C(=O)N[C@@H](C)c4ccc(-c5scnc5C)cc4)C(C)(C)C)CC3)nc2)cc1)[C@H]1CC[C@H](Nc2ncc3ccccc3n2)CC1 [Formula 133, (2S,4R)-1-((S)-3,3-dimethyl-2-(2-(4-(((5-(4-(N-((1R,4R)-4-(quinazolin-2-ylamino)cyclohexyl)acetamido)phenyl)pyridin-2-yl)oxy)methyl)piperidin-1-yl)acetamido)butanoyl)-4-hydroxy-N—((S)-1-(4-(4-methylthiazol-5-yl)phenyl)ethyl)pyrrolidine-2-carboxamide] | 0.5 to 1 µM | 0.1 to 0.5 µM
13 | CC(=O)N(c1ccc(-c2cnc(OCC3CCN(CC(=O)N[C@H](C(=O)N4C[C@H](O)C[C@H]4C(=O)N[C@@H](C)c4ccc(-c5scnc5C)cc4)C(C)(C)C)CC3)nc2)cc1)[C@H]1CC[C@H](Nc2ncc3ccccc3n2)CC1 [Formula 134, (2S,4R)-1-((S)-3,3-dimethyl-2-(2-(4-(((5-(4-(N-((1R,4R)-4-(quinazolin-2-ylamino)cyclohexyl)acetamido)phenyl)pyrimidin-2-yl)oxy)methyl)piperidin-1-yl)acetamido)butanoyl)-4-hydroxy-N—((S)-1-(4-(4-methylthiazol-5-yl)phenyl)ethyl)pyrrolidine-2-carboxamide] | 0.5 to 1 µM | 0.5 to 1 µM
14 | CC(=O)N(c1ccc(-c2ccc(OC3CCN(CC(=O)N[C@H](C(=O)N4C[C@H](O)C[C@H]4C(=O)N[C@@H](C)c4ccc(-c5scnc5C)cc4)C(C)(C)C)CC3)nc2)cc1)[C@H]1CC[C@H](Nc2ncc3ccccc3n2)CC1 [Formula 135, (2S,4R)-1-((S)-3,3-dimethyl-2-(2-(4-((5-(4-(N-((1R,4R)-4-(quinazolin-2-ylamino)cyclohexyl)acetamido)phenyl)pyridin-2-yl)oxy)piperidin-1-yl)acetamido)butanoyl)-4-hydroxy-N—((S)-1-(4-(4-methylthiazol-5-yl)phenyl)ethyl)pyrrolidine-2-carboxamide] | 0.5 to 1 µM | 1 to 3 µM

From patent publication US20260327204A1, “DEGRADERS OF CYCLIN-DEPENDENT KINASE 12/13, COMPOSITIONS, AND USES THEREOF” (ZHEJIANG UNIVERSITY, priority 2023, published 2026)
